Laboratory results as given in ChEMBL document CHEMBL3352261, “Discovery of inhibitors of the mitotic kinase TTK based on N-(3-(3-sulfamoylphenyl)-1H-indazol-5-yl)-acetamides and carboxamides” (Bioorg Med Chem, 2014).

Columns and labels:
[1] = biological target: T1, Dual specificity protein kinase TTK (Homo sapiens, UniProt P33981); experiment: Inhibition of SUMO-tagged human TTK (1-275 residues) compound pre-incubated for 15 mins prior ATP addition by MBP-based assay
T1 sequence (P33981 whole entry): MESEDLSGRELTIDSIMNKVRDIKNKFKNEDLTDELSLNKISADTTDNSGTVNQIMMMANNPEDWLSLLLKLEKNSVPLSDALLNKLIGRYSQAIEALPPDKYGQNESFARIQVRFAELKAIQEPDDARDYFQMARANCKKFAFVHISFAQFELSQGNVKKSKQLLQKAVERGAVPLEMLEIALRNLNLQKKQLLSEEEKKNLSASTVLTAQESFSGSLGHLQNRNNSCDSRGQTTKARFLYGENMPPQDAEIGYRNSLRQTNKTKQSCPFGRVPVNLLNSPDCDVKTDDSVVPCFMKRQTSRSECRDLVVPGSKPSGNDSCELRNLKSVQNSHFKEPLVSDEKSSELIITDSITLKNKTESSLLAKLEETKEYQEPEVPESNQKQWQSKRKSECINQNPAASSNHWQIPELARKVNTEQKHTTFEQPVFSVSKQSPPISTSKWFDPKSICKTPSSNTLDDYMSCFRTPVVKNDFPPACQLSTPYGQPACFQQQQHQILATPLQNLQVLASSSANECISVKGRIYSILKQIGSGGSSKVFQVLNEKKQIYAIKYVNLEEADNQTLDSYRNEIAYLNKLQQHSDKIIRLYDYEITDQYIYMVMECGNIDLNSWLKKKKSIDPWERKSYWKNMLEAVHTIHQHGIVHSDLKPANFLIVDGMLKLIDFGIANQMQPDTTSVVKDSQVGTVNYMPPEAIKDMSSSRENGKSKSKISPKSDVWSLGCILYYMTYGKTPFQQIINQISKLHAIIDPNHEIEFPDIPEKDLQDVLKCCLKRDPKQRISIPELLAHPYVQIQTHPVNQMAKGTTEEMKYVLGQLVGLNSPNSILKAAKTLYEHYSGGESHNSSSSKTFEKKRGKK

[2] = Growth inhibition of human HCT116 cells after 5 days by SRB assay; format: functional; details: HCT-116, 120 h
[3] = biological target: T1, Dual specificity protein kinase TTK; experiment: Inhibition of GST-fused full length human TTK compound pre-incubated for 15 mins prior ATP addition by MBP-based assay
A549 = experiment: Growth inhibition of human A549 cells after 5 days by SRB assay; format: functional; details: A549, 120 h
MDA-MB-468 = experiment: Growth inhibition of human MDA-MB-468 cells after 5 days by SRB assay; format: functional; details: MDA-MB-468, 120 h

SMILES: NS(=O)(=O)c1cccc(-c2n[nH]c3ccc(C(=O)NCc4ccccc4)cc23)c1
- IC50 [1]: 90 nM
- GI50 [2]: 1800 nM

SMILES: NS(=O)(=O)c1cccc(-c2n[nH]c3ccc(CNC(=O)c4ccccc4)cc23)c1
- IC50 [1]: 550 nM
- GI50 [2]: 700 nM

SMILES: NS(=O)(=O)c1cccc(-c2n[nH]c3cccc(-c4c(F)cccc4F)c23)c1
- IC50 [1]: 1400 nM

SMILES: NS(=O)(=O)c1cccc(-c2n[nH]c3ccc(NC(=O)c4cccs4)cc23)c1
- IC50 [1]: 280 nM

SMILES: CC(=O)Nc1ccc2c(-c3cccc(S(N)(=O)=O)c3)n[nH]c2c1
- IC50 [1]: 18000 nM

SMILES: NS(=O)(=O)c1ccc(-c2n[nH]c3cccc(Cl)c23)cc1
- IC50 [3]: 18000 nM

SMILES: CCc1cccc(CC)c1CC(=O)Nc1ccc2[nH]nc(-c3cccc(S(N)(=O)=O)c3)c2c1
- IC50 [1]: 17 nM
- GI50 [2]: 180 nM

SMILES: NS(=O)(=O)c1cccc(-c2n[nH]c3ccc(C(=O)NC(c4ccsc4)C4CC4)cc23)c1 (racemic)
- IC50 [1]: 4 nM
- GI50 [2]: 610 nM

SMILES: NS(=O)(=O)c1cccc(-c2n[nH]c3ccc(NC(=O)Cc4ccccn4)cc23)c1
- IC50 [1]: 90 nM
- GI50 [2]: 6890 nM

SMILES: CO[C@H](C(=O)Nc1ccc2[nH]nc(-c3cccc(S(N)(=O)=O)c3)c2c1)c1ccccc1
- IC50 [1]: 26 nM
- GI50 [2]: 800 nM
- GI50 (A549): 3600 nM
- GI50 (MDA-MB-468): 2200 nM

SMILES: CCC(C(=O)Nc1ccc2[nH]nc(-c3cccc(S(N)(=O)=O)c3)c2c1)c1ccccc1 (racemic)
- IC50 [1]: 24 nM
- GI50 [2]: 1300 nM

SMILES: NS(=O)(=O)c1cccc(-c2n[nH]c3ccc(C(=O)NC(c4ccccc4)C4CCCCC4)cc23)c1 (racemic)
- IC50 [1]: 47 nM
- GI50 [2]: 810 nM

SMILES: CN(C)C(C(=O)Nc1ccc2[nH]nc(-c3cccc(S(N)(=O)=O)c3)c2c1)c1ccccc1 (racemic)
- IC50 [1]: 12 nM
- GI50 [2]: 660 nM
- GI50 (A549): 1700 nM
- GI50 (MDA-MB-468): 1400 nM

SMILES: NS(=O)(=O)c1cccc(-c2n[nH]c3ccc(NC(=O)C(c4ccccc4)C4CCCCC4)cc23)c1 (racemic)
- IC50 [1]: 61 nM
- GI50 [2]: 430 nM

SMILES: NS(=O)(=O)c1cccc(-c2n[nH]c3ccc(C(=O)NCc4cccs4)cc23)c1
- IC50 [1]: 33 nM
- GI50 [2]: 1800 nM

SMILES: CCc1cccc(CC)c1NC(=O)N(C)c1ccc2[nH]nc(-c3cccc(S(N)(=O)=O)c3)c2c1
- IC50 [1]: > 50000 nM
- GI50 [2]: > 50000 nM

SMILES: COc1cc(N2CCC(O)CC2)ccc1Nc1nc(Nc2ccccc2S(=O)(=O)C(C)C)c2cc[nH]c2n1
- IC50 [3]: 370 nM

SMILES: NS(=O)(=O)c1cccc(-c2n[nH]c3ccc(NC(=O)CCc4ccccc4)cc23)c1
- IC50 [1]: 980 nM
- GI50 [2]: > 50000 nM

SMILES: CN(Cc1ccccc1)C(=O)c1ccc2[nH]nc(-c3cccc(S(N)(=O)=O)c3)c2c1
- IC50 [1]: 250 nM
- GI50 [2]: 180 nM

SMILES: NS(=O)(=O)c1cccc(-c2n[nH]c3ccc(NC(=O)Cc4cccs4)cc23)c1
- IC50 [1]: 16 nM
- GI50 [2]: 2900 nM

SMILES: CC(C)C(C(=O)Nc1ccc2[nH]nc(-c3cccc(S(N)(=O)=O)c3)c2c1)c1ccccc1 (racemic)
- IC50 [1]: 46 nM

SMILES: NS(=O)(=O)c1cccc(-c2n[nH]c3ccc(NC(=O)Cc4ccncc4)cc23)c1
- IC50 [1]: 340 nM
- GI50 [2]: 50000 nM

SMILES: NS(=O)(=O)c1cccc(-c2n[nH]c3cc(NC(=O)c4cccs4)ccc23)c1
- IC50 [1]: 4300 nM

SMILES: NS(=O)(=O)c1cccc(-c2n[nH]c3ccc(OCCc4cccs4)cc23)c1
- IC50 [1]: 380 nM
- GI50 [2]: 750 nM

SMILES: COc1ccc2[nH]nc(-c3cccc(S(N)(=O)=O)c3)c2c1
- IC50 [1]: 600 nM

SMILES: NS(=O)(=O)c1cccc(-c2n[nH]c3ccc(NC(=O)C(c4ccccc4)C4CCCC4)cc23)c1 (racemic)
- IC50 [1]: 53 nM
- GI50 [2]: 630 nM

SMILES: NS(=O)(=O)c1cccc(-c2n[nH]c3ccc(C(=O)NC(c4ccccc4)C4CC4)cc23)c1 (racemic)
- IC50 [1]: 16 nM

SMILES: NS(=O)(=O)c1cccc(-c2n[nH]c3ccc(NS(=O)(=O)c4cccs4)cc23)c1
- IC50 [1]: 340 nM
- GI50 [2]: 3400 nM

SMILES: CN(C)[C@H](C(=O)Nc1ccc2[nH]nc(-c3cccc(S(N)(=O)=O)c3)c2c1)c1ccccc1
- IC50 [1]: 11 nM
- GI50 [2]: 520 nM
- GI50 (A549): 830 nM
- GI50 (MDA-MB-468): 840 nM

SMILES: Oc1c2ccccc2c2c3c(cccc13)N=N2 [SP-600125]
- IC50 [3]: 2500 nM

SMILES: N#Cc1ccc2c(/C=C/c3ccncc3)n[nH]c2c1
- IC50 [3]: 5000 nM

SMILES: CN(C)[C@@H](C(=O)Nc1ccc2[nH]nc(-c3cccc(S(N)(=O)=O)c3)c2c1)c1ccccc1
- IC50 [1]: 15 nM
- GI50 [2]: 1100 nM
- GI50 (A549): 3400 nM
- GI50 (MDA-MB-468): 1300 nM

SMILES: NS(=O)(=O)c1cccc(-c2n[nH]c3ccc(NC(=O)Cc4ccccc4)cc23)c1
- IC50 [1]: 39 nM
- GI50 [2]: 21000 nM

SMILES: NS(=O)(=O)c1cccc(-c2n[nH]c3ccc(NS(=O)(=O)Nc4ccccc4)cc23)c1
- IC50 [1]: 710 nM
- GI50 [2]: 6890 nM

SMILES: CCOC(C(=O)Nc1ccc2[nH]nc(-c3cccc(S(N)(=O)=O)c3)c2c1)c1ccccc1 (racemic)
- IC50 [1]: 14 nM
- GI50 [2]: 400 nM
- GI50 (A549): 800 nM
- GI50 (MDA-MB-468): 1400 nM

SMILES: NS(=O)(=O)c1cccc(-c2n[nH]c3ccc(NC(=O)C(c4ccccc4)N4CCCCC4)cc23)c1 (racemic)
- IC50 [1]: 10 nM
- GI50 [2]: 270 nM
- GI50 (A549): 400 nM
- GI50 (MDA-MB-468): 690 nM

SMILES: NS(=O)(=O)c1cccc(-c2n[nH]c3ccc(NC(=O)C(c4ccccc4)N4CCCC4)cc23)c1 (racemic)
- IC50 [1]: 8.9 nM
- GI50 [2]: 110 nM
- GI50 (A549): 230 nM
- GI50 (MDA-MB-468): 350 nM

SMILES: Cc1ccccc1NC(=O)Cc1ccc2[nH]nc(-c3cccc(S(N)(=O)=O)c3)c2c1
- IC50 [1]: > 5000 nM
- GI50 [2]: > 50000 nM

SMILES: CCc1cccc(CC)c1NS(=O)(=O)Nc1ccc2[nH]nc(-c3cccc(S(N)(=O)=O)c3)c2c1
- IC50 [1]: 2600 nM
- GI50 [2]: 50000 nM

SMILES: COC(C(=O)Nc1ccc2[nH]nc(-c3cccc(S(N)(=O)=O)c3)c2c1)c1ccccc1 (racemic)
- IC50 [1]: 26 nM
- GI50 [2]: 1060 nM
- GI50 (A549): 2500 nM
- GI50 (MDA-MB-468): 2200 nM

SMILES: COc1cccc2[nH]nc(-c3cccc(S(N)(=O)=O)c3)c12
- IC50 [1]: 2300 nM

SMILES: NS(=O)(=O)c1cccc(-c2n[nH]c3ccc(-c4ccccc4)cc23)c1
- IC50 [1]: 4300 nM

SMILES: NS(=O)(=O)c1cccc(-c2n[nH]c3ccc(NC(=O)Nc4ccccc4)cc23)c1
- IC50 [1]: 390 nM
- GI50 [2]: 41000 nM

SMILES: NS(=O)(=O)c1cccc(-c2n[nH]c3ccc(NC(=O)C4(c5ccccc5)CC4)cc23)c1
- IC50 [1]: 310 nM
- GI50 [2]: 7300 nM

SMILES: Cc1cccc(CS(=O)(=O)Nc2ccc3[nH]nc(-c4cccc(S(N)(=O)=O)c4)c3c2)c1
- IC50 [1]: 330 nM
- GI50 [2]: 28000 nM

SMILES: CC(=O)Nc1ccc2[nH]nc(-c3cccc(S(N)(=O)=O)c3)c2c1
- IC50 [1]: 640 nM

SMILES: Cc1ccccc1CNC(=O)c1ccc2[nH]nc(-c3cccc(S(N)(=O)=O)c3)c2c1
- IC50 [1]: 18 nM
- GI50 [2]: 1800 nM

SMILES: CCc1cccc(CC)c1CNC(=O)c1ccc2[nH]nc(-c3cccc(S(N)(=O)=O)c3)c2c1
- IC50 [1]: 80 nM
- GI50 [2]: 700 nM

SMILES: NS(=O)(=O)c1cccc(-c2n[nH]c3ccc(OCc4ccccc4)cc23)c1
- IC50 [1]: 580 nM

SMILES: CNC(=O)c1ccc2c(-c3cccc(S(N)(=O)=O)c3)n[nH]c2c1
- IC50 [1]: 11000 nM

SMILES: CO[C@@H](C(=O)Nc1ccc2[nH]nc(-c3cccc(S(N)(=O)=O)c3)c2c1)c1ccccc1
- IC50 [1]: 30 nM
- GI50 [2]: 850 nM
- GI50 (A549): 2400 nM
- GI50 (MDA-MB-468): 3200 nM

SMILES: NS(=O)(=O)c1cccc(-c2n[nH]c3cc(-c4ccccc4)ccc23)c1
- IC50 [1]: 5400 nM

SMILES: NS(=O)(=O)c1cccc(-c2n[nH]c3ccc(C(=O)NC4(c5ccccc5)CC4)cc23)c1
- IC50 [1]: 35 nM
- GI50 [2]: 3300 nM

SMILES: Cc1ccccc1CC(=O)Nc1ccc2[nH]nc(-c3cccc(S(N)(=O)=O)c3)c2c1
- IC50 [1]: 25 nM
- GI50 [2]: 1800 nM
